Experimental data published in patent US7524964B2, “Tetrahydrothiopyrano pyrazole cannabinoid modulators” (Janssen Pharmaceutica NV, priority 2005, dated 2009).

Legend:
human CB-2 receptor = target: T1, human CB-2 receptor (Homo sapiens, UniProt P34972); assay: Binding assay, cannabinoid CB2 receptor ([3H]-CP-55,940 displacement); details: read-out: CB2 binding percent inhibition; for inhibition at 10 µM: test concentration 10 μM (superscript c); for inhibition at 0.2 µM: test concentration 0.2 μM (superscript a)
T1 construct: expressed in transfected cells; host or cells: SK-N-MC cells, pcDNA3 CB-2 (human), semi-purified membranes
T1 sequence (P34972 whole entry): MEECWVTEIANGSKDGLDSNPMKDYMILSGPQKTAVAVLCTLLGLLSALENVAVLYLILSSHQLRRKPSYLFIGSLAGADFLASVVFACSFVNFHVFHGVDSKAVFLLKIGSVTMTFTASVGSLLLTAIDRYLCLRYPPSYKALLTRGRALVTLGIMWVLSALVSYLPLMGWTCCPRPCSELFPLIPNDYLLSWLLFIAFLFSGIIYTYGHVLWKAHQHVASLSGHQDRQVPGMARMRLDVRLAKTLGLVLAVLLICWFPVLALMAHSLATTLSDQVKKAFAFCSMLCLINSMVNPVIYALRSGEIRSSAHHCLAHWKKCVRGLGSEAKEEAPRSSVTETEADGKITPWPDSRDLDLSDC
Protocol: (§1) Binding Assay for CB1 or CB2 Agonists or Inverse Agonists
(§2) The human CB-1 and CB-2 receptors were stably expressed in SK-N-MC cells transfected with pcDNA3 CB-1 (human) or pcDNA3 CB-2 (human). The cells were grown in T-180 cell culture flasks under standard cell culture conditions at 37° C. in a 5% CO2 atmosphere. The cells were harvested by trypsinization and homogenized in a homogenization buffer (10 mM Tris, 0.2 mM MgCl2, 5 mM KCl, with protease inhibitors aprotinin, leupeptin, pepstatin A and bacitracin) and centrifuged (2000 g). The supernatant was then centrifuged in 2M sucrose (31,300 g) to produce a semi-purified membrane pellet. The pellet was resuspended in homogenization and store at −80° C.
(§3) On the day of the assay, the pellet was thawed on ice and diluted in assay buffer (50 mM Tris-HCl, 5 mM MgCl2, 2.5 mM EDTA, 0.5 mg/mL fatty acid free bovine serum albumin, pH 7.5). The diluted membrane was added with buffer, test compound or standard and the radioligand [H]^3+-CP-55,940_(0.2 nM) to the wells of a 96-well polypropylene plate. Non-specific binding was measured in wells containing 10 uM WIN 55,212. The plate was covered and incubated for 90 minutes at 30° C. The contents were then aspirated onto a Packard Unifilter G/C filter bottom plate prewet with 0.5% polyethyleneimine. The wells of the polypropylene plate were rinsed and aspirated seven times with a 0.9% saline-0.5% Tween 20 solution. The Unifilter plate was dried, a scintillation cocktail was added to each well and the counts representing binding were quantitated in a TopCount scintillation counter.
(§4) The IC50 binding values for compounds tested were calculated by linear regression and were obtained from studies in which varying compound concentrations were used. Where an IC50 was not obtained, test results are provided as percent inhibition at a test concentration of ^a0.2 μM, ^b1 μM or ^c10 μM.

human CB1 receptor = human CB1 receptor (Homo sapiens, UniProt P21554); assay: Binding assay, cannabinoid CB1 receptor ([3H]-CP-55,940 displacement); parameters: expressed in transfected cells; host or cells: SK-N-MC cells, pcDNA3 CB-1 (human), semi-purified membranes; details: read-out: CB1 binding percent inhibition; for inhibition at 10 µM: test concentration 10 μM (superscript c); for inhibition at 0.2 µM: test concentration 0.2 μM (superscript a)
Sequence of human CB1 receptor (P21554 whole entry): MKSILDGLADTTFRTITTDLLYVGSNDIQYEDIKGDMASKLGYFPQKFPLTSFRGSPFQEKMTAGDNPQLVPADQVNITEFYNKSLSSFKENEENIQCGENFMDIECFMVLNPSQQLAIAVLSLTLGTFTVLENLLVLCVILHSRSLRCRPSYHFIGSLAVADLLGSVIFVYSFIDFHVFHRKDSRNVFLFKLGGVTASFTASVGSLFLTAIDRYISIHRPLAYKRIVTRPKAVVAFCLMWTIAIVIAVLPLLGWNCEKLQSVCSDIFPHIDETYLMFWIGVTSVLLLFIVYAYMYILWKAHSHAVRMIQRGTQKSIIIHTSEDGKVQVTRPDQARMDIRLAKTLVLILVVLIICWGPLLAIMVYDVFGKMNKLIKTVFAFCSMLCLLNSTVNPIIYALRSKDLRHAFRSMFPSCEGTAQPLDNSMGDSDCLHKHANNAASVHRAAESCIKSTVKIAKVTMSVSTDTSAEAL
Protocol: as §1, §2, §3, §4

Row | Compound | inhibition at 10 µM (human CB-2 receptor) [%] | inhibition at 10 µM (human CB1 receptor) [%] | inhibition at 0.2 µM (human CB-2 receptor) [%] | inhibition at 0.2 µM (human CB1 receptor) [%]
1 | C[C@@H](NC(=O)/C=C/c1nn(Cc2ccccc2)c2c1C[S+]([O-])CC2)c1ccccc1 (stereo partly drawn) [Cpd 35, (2E)-3-(1-benzyl-5-oxo-4,5,6,7-tetrahydro-1H-5λ^4-thiopyrano[4,3-c]pyrazol-3-yl)-N-[(1R)-1-phenyl-ethyl]-acrylamide] | 28 | 4 |  | 
2 | C[C@@H](NC(=O)/C=C/c1nn(Cc2ccccc2)c2c1CS(=O)(=O)CC2)c1ccccc1 [Cpd 37, (2E)-3-(1-benzyl-5,5-dioxo-4,5,6,7-tetrahydro-1H-5λ^6-thiopyrano[4,3-c]pyrazol-3-yl)-N-[(1R)-1-phenyl-ethyl]-acrylamide] | 7 | 11 |  | 
3 | C[C@H](NS(=O)(=O)/C=C/c1nn(-c2ccc(F)cc2F)c2c1CSCC2Cc1cccc(F)c1)c1ccccc1 (stereo partly drawn) [Cpd 38, (E)-2-[1-(2,4-difluoro-phenyl)-7-(3-fluoro-benzyl)-1,4,6,7-tetrahydro-thiopyrano[4,3-c]pyrazol-3-yl]-ethenesulfonic acid [(1S)-1-phenyl-ethyl]-amide] |  |  | 15 | 28
4 | C[C@@H](NS(=O)(=O)/C=C/c1nn(-c2ccc(F)cc2F)c2c1CSCC2Cc1cccc(F)c1)C1CCCCC1 (stereo partly drawn) [Cpd 39, (E)-2-[1-(2,4-difluoro-phenyl)-7-(3-fluoro-benzyl)-1,4,6,7-tetrahydro-thiopyrano[4,3-c]pyrazol-3-yl]-ethenesulfonic acid [(1R)-1-cyclohexyl-ethyl]-amide] |  |  | 37 | 55
5 | O=S(=O)(/C=C/c1nn(-c2ccc(F)cc2F)c2c1CSCC2Cc1cccc(F)c1)NN1CCCCC1 (centres unmarked) [Cpd 40, (E)-2-[1-(2,4-difluoro-phenyl)-7-(3-fluoro-benzyl)-1,4,6,7-tetrahydro-thiopyrano[4,3-c]pyrazol-3-yl]-ethenesulfonic acid piperidin-1-ylamide] |  |  | 10 | 12
6 | O=S(=O)(/C=C/c1nn(-c2ccc(F)cc2F)c2c1CSCC2Cc1cccc(F)c1)NN1CCOCC1 (centres unmarked) [Cpd 41, (E)-2-[1-(2,4-difluoro-phenyl)-7-(3-fluoro-benzyl)-1,4,6,7-tetrahydro-thiopyrano[4,3-c]pyrazol-3-yl]-ethenesulfonic acid morpholin-4-ylamide] |  |  | 8 | 9
7 | C[C@H](NS(=O)(=O)/C=C/c1nn(-c2ccc(F)cc2F)c2c1CS(=O)(=O)CC2Cc1cccc(F)c1)c1ccccc1 (stereo partly drawn) [Cpd 42, (E)-2-[1-(2,4-difluoro-phenyl)-7-(3-fluoro-benzyl)-5,5-dioxo-4,5,6,7-tetrahydro-1H-5λ^6-thiopyrano[4,3-c]pyrazol-3-yl]-ethenesulfonic acid [(1S)-1-phenyl-ethyl]-amide] |  |  | 20 | 31
8 | C[C@@H](NS(=O)(=O)/C=C/c1nn(-c2ccc(F)cc2F)c2c1CS(=O)(=O)CC2Cc1cccc(F)c1)C1CCCCC1 (stereo partly drawn) [Cpd 43, (E)-2-[1-(2,4-difluoro-phenyl)-7-(3-fluoro-benzyl)-5,5-dioxo-4,5,6,7-tetrahydro-1H-5λ^6-thiopyrano[4,3-c]pyrazol-3-yl]-ethenesulfonic acid [(1R)-1-cyclohexyl-ethyl]-amide] |  |  | 11 | 41
9 | O=S1(=O)Cc2c(/C=C/S(=O)(=O)NN3CCOCC3)nn(-c3ccc(F)cc3F)c2C(Cc2cccc(F)c2)C1 (centres unmarked) [Cpd 44, (E)-2-[1-(2,4-difluoro-phenyl)-7-(3-fluoro-benzyl)-5,5-dioxo-4,5,6,7-tetrahydro-1H-5λ^6-thiopyrano[4,3-c]pyrazol-3-yl]-ethenesulfonic acid morpholin-4-ylamide] |  |  | 9 | 3
10 | O=S1(=O)Cc2c(/C=C/S(=O)(=O)NN3CCCCC3)nn(-c3ccc(F)cc3F)c2C(Cc2cccc(F)c2)C1 (centres unmarked) [Cpd 45, (E)-2-[1-(2,4-difluoro-phenyl)-7-(3-fluoro-benzyl)-5,5-dioxo-4,5,6,7-tetrahydro-1H-5λ^6-thiopyrano[4,3-c]pyrazol-3-yl]-ethenesulfonic acid piperidin-1-ylamide] |  |  | 8 | 33
